Columns and labels:
[1] = DRUGMATRIX: ATPase, Na+/K+ enzyme inhibition (substrate: ATP); type: tissue-based, Sus scrofa, Heart; settings: Not Active = under 50% inhibition at 10 µM
[2] = molecular target: T1, Vasoactive intestinal polypeptide receptor 1 (Homo sapiens, UniProt P32241); type: cell membranes, Membrane; settings: ht-29; also: in other assays of this panel Not Active means under 50% inhibition at 10 µM
T1 sequence (P32241 whole entry): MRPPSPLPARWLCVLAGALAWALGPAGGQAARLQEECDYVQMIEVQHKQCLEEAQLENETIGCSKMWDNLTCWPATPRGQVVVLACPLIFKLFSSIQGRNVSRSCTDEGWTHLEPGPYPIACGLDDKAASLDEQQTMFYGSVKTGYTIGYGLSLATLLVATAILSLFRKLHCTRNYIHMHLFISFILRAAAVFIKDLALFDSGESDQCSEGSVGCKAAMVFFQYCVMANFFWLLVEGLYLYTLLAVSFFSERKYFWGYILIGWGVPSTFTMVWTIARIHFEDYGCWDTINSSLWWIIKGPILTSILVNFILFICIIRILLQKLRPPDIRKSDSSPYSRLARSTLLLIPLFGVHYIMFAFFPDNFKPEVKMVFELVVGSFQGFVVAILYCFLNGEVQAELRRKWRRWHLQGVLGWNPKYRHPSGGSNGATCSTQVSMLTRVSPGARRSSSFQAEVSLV

Nitric oxide synthase 1 = Nitric oxide synthase 1 (Rattus norvegicus, UniProt P29476); type: tissue-based, Cerebellum; also: in other assays of this panel Not Active means under 50% inhibition at 10 µM
Progesterone receptor = molecular target: T2, Progesterone receptor (Bos taurus, UniProt Q690N0); test: DRUGMATRIX: Progesterone radioligand binding (ligand: [3H] R-5020); type: tissue-based, Uterus; settings: Not Active = under 50% inhibition at 10 µM
T2 sequence (Q690N0 whole entry): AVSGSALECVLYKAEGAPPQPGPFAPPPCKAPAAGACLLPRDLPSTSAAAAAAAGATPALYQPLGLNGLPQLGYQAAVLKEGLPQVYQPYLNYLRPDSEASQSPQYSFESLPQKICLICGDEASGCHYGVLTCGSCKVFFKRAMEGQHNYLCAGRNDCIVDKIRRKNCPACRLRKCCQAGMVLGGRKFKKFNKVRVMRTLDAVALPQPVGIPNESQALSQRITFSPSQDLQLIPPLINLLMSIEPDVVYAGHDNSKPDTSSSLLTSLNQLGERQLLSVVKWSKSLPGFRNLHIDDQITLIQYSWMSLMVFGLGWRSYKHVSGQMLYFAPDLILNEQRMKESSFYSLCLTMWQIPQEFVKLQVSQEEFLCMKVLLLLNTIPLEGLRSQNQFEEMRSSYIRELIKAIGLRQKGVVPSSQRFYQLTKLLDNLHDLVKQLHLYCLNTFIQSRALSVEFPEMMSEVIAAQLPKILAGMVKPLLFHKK

[3] = molecular target: T3, Receptor-type tyrosine-protein phosphatase C (Homo sapiens, UniProt P08575); set-up: species or system Escherichia coli;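 also: inhibition of CD45 enzyme activity measured using DiFMUP as substrate; in other assays of this panel Not Active means under 50% inhibition at 10 µM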
T3 sequence (P08575 whole entry): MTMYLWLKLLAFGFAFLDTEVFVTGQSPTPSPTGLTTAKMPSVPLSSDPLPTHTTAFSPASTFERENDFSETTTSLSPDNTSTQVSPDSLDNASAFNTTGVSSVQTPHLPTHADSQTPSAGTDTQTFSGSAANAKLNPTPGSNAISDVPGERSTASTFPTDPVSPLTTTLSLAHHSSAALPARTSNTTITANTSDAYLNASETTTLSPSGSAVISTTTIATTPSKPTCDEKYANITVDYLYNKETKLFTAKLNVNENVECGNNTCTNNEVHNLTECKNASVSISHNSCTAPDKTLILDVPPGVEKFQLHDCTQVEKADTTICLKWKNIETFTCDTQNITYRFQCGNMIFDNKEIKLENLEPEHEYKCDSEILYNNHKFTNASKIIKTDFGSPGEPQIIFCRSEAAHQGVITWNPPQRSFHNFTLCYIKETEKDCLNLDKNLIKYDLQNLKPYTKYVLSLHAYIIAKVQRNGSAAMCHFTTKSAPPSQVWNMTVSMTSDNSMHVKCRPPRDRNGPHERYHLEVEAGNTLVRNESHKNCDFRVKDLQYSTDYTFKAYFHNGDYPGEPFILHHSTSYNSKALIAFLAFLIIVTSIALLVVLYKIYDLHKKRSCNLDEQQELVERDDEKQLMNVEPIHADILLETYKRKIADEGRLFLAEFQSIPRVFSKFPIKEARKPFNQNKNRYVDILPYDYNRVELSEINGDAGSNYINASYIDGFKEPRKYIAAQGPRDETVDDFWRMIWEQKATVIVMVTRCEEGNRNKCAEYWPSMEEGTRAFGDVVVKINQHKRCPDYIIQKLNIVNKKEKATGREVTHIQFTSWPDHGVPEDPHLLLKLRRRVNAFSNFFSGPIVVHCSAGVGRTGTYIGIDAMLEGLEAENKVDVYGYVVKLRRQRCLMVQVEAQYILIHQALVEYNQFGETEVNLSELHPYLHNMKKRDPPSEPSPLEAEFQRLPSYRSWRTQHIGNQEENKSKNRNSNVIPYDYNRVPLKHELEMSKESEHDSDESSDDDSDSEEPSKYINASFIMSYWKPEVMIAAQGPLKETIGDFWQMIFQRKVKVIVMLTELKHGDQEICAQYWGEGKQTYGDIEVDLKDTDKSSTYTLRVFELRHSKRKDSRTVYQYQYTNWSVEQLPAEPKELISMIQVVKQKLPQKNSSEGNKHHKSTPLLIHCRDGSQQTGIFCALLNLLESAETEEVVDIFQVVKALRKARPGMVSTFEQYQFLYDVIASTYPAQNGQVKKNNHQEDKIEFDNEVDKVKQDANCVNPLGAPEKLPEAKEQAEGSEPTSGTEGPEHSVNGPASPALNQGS

Cytochrome P450 1A2 = molecular target: T4, Cytochrome P450 1A2 (Homo sapiens, UniProt P05177); settings: bti-tn-5b1-4; also: in other assays of this panel Not Active means under 50% inhibition at 10 µM
T4 sequence (P05177 whole entry): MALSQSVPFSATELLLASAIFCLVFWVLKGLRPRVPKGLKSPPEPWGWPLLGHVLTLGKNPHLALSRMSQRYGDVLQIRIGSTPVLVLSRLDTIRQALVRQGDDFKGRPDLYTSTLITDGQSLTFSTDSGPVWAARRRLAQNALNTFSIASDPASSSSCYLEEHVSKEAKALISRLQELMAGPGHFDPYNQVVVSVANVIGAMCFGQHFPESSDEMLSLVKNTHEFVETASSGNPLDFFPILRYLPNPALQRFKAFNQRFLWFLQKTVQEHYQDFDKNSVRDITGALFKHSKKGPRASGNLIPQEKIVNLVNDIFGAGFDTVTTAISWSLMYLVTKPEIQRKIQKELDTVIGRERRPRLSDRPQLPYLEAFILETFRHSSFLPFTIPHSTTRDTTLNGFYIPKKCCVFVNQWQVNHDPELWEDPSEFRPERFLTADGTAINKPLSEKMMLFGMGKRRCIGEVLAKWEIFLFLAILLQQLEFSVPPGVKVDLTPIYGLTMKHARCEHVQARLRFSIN

Nitric oxide synthase 1, sequence (P29476 whole entry): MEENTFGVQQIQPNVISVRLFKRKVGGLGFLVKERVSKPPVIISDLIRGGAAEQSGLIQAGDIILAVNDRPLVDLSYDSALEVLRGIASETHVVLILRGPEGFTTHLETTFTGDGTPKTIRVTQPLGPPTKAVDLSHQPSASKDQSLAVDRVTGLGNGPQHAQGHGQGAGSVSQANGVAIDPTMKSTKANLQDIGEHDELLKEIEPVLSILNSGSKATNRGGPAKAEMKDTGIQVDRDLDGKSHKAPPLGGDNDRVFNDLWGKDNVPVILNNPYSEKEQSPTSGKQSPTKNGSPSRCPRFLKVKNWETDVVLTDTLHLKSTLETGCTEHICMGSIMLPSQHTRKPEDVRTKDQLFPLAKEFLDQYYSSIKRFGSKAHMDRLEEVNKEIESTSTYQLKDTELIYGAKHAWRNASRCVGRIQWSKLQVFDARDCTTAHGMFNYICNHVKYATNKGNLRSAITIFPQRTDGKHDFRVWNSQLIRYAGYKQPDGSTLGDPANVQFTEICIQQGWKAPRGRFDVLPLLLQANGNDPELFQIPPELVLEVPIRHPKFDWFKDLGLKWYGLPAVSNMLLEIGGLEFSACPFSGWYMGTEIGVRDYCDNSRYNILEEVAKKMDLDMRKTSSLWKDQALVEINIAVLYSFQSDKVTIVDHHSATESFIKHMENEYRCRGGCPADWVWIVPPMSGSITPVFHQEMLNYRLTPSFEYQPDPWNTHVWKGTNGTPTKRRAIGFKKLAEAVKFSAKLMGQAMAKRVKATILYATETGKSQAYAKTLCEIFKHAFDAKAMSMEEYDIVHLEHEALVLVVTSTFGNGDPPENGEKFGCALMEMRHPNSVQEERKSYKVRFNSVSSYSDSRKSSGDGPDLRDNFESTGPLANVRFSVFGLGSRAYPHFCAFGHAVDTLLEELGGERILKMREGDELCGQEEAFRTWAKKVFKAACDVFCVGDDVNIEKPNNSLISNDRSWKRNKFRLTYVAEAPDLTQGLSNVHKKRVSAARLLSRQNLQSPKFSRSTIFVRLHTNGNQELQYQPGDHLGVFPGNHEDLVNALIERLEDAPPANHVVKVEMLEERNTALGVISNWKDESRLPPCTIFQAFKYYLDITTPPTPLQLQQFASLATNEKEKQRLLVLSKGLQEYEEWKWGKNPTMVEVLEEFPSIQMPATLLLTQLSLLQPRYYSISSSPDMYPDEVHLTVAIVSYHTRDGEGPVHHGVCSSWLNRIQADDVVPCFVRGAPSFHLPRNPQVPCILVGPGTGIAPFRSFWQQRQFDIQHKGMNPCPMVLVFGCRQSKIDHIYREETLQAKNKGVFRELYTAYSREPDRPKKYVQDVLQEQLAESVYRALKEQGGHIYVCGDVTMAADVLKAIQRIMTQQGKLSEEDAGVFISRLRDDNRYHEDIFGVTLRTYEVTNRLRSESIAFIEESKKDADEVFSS

Compound	IC50 [1]	Ki [1]	IC50 [2]	IC50 (Nitric oxide synthase 1)	IC50 (Progesterone receptor)	IC50 [3]	IC50 (Cytochrome P450 1A2)	Ki (Cytochrome P450 1A2)	IC50 (Progesterone receptor; read-out: IC50) [µM]	Ki (Progesterone receptor; read-out: Ki) [µM]
CCOc1nc2cccc(C(=O)O)c2n1Cc1ccc(-c2ccccc2-c2nnn[nH]2)cc1	Not Active	Not Active	Not Active	Not Active	Not Active	Not Active	–	–	–	–
O=C(O)CCCc1cccs1	Not Active	Not Active	Not Active	Not Active	Not Active	Not Active	Not Active	Not Active	–	–
COc1ccccc1N	Not Active	Not Active	Not Active	Not Active	Not Active	Not Active	Not Active	Not Active	–	–
O=C(c1ccccc1F)N1CCC(Cc2ccccc2)CC1	Not Active	Not Active	Not Active	Not Active	Not Active	Not Active	Not Active	Not Active	–	–
Cc1c(O)cccc1C(=O)N[C@@H](CSc1ccccc1)[C@H](O)CN1C[C@H]2CCCC[C@H]2C[C@H]1C(=O)NC(C)(C)C	Not Active	Not Active	Not Active	Not Active	–	Not Active	Not Active	Not Active	44.5	5.8
CC(O)COC[C@H]1O[C@@H]2O[C@H]3[C@H](O)[C@@H](O)[C@@H](O[C@H]4[C@H](O)[C@@H](O)[C@@H](O[C@H]5[C@H](O)[C@@H](O)[C@@H](O[C@H]6[C@H](O)[C@@H](O)[C@@H](O[C@H]7[C@H](O)[C@@H](O)[C@@H](O[C@H]8[C@H](O)[C@@H](O)[C@@H](O[C@H]1[C@H](O)[C@H]2O)O[C@@H]8COCC(C)O)O[C@@H]7COCC(C)O)O[C@@H]6COCC(C)O)O[C@@H]5COCC(C)O)O[C@@H]4COCC(C)O)O[C@@H]3COCC(C)O (stereo partly drawn) [2-HYDROXYPROPYL-BETA-CYCLODEXTRIN]	Not Active	Not Active	Not Active	Not Active	Not Active	Not Active	Not Active	Not Active	–	–
NC(=O)c1cccc(N)c1 [3-AMINOBENZAMIDE]	Not Active	Not Active	Not Active	Not Active	Not Active	Not Active	Not Active	Not Active	–	–
NC12CC3CC(CC(C3)C1)C2 [AMANTADINE]	Not Active	Not Active	Not Active	Not Active	Not Active	Not Active	–	–	–	–
NCCCNCCSP(=O)(O)O [AMIFOSTINE]	Not Active	Not Active	Not Active	Not Active	–	Not Active	Not Active	Not Active	–	–
